Columns and labels:
Format in all cases: cell-based
human MSCs [1] = experiment: Real time gDNA PCR comparing length of telomeres in human MSCs treated with ET-1; conditions: 0.025 μg/mL ET-1, medium replaced after 24 hours, gDNA collected after 3 days; FIG. 3
Method: To check a change in a length of telomeres in human MSCs when the human MSCs were treated or were not treated with ET-1, the human MSCs were prepared so that the cells reached a confluency of 60% on a 60 mm plate. Before the human MSCs were treated with ET-1, a culture broth was replaced with a fresh culture broth. Thereafter, the human MSCs were treated with 0.025 μg/mL of ET-1, and the medium was replaced with a fresh culture broth after 24 hours. After 3 days, gDNA samples were collected. Then, real time gDNA PCR was performed using the samples to compare the lengths of the telomeres by means of ET-1 treatment.

[2] = test system: Oct4 protein in human MSCs; experiment: Western blotting of Oct4 protein expression in human MSCs treated with ET-1
Method: To determine a level of expression of an Oct4 protein in human MSCs when the human MSCs were treated with ET-1, human MSCs purchased from Lonza were treated with an increasing concentration (0, 0.0125, 0.025, 0.125, and 0.25 μg/mL) of ET-1, and a level of protein expression was determined through western blotting.

human MSCs [3] = experiment: G-banding karyotype analysis of chromosomal stability in human MSCs treated with ET-1; conditions: human MSCs treated with ET-1 as in Example 2, FIG. 4
Method: For this purpose, the G-banding karyotype analysis method known as a basic test method for evaluating genomic stability was performed. The G-banding karyotype analysis method is a method of pre-treating stem cells with trypsin, which is a proteolytic enzyme, and staining chromosomes with a Giemsa stain. In this case, euchromatin is stained with a light color, and heterochromatin is stained with a dark color. The G-banding karyotype analysis method is the test method most often used for chromosomal analysis because many staining bands are generated.

Oct4 mRNA in human MSCs = experiment: Real time PCR of Oct4 mRNA expression in human MSCs treated with ET-1; conditions: RNA extracted 24 hours after ET-1 treatment, FIG. 2
Method: To compare levels of mRNA expression of Oct4 in human MSCs treated with ET-1, the human MSCs were treated with ET-1, and RNA was extracted therefrom after 24 hours to synthesize complementary cDNA. Thereafter, real time PCR was performed using the complementary cDNA as a template and Oct4 amplification primers set forth in the following SEQ ID NOs: 1 and 2.
SEQ ID NO: 1: 5′-gaggcaacct ggagaatttg-3′ (Oct4 forward primer)
SEQ ID NO: 2: 5′-tagcctgggg taccaaaatg-3′ (Oct4 reverse primer)

endothelin-1 [ET-1]
lengths of the telomeres versus MSCs not treated with ET-1 (human MSCs [1]): extended approximately three-fold or more
level of protein expression of Oct4 across the tested ET-1 concentrations ([2]; ET-1 at a concentration of 0.025 μg/mL, FIG. 1): highest level of protein expression
level of protein expression of the stemness marker Oct4 ([2]; human MSCs (Lonza) treated with 0, 0.0125, 0.025, 0.125 and 0.25 μg/mL ET-1, FIG. 1): significantly increased
chromosomal stability (chromosomal dysfunction) (human MSCs [3]): chromosomal dysfunction was not induced
mRNA expression of Oct4 (Oct4 mRNA in human MSCs): increased

Reference: patent US20180087027A1, “METHOD FOR […] OF HUMAN MESENCHYMAL STEM CELLS” (SEOUL NATIONAL UNIVERSITY HOSPITAL, priority 2015, published 2018)
